SMILES strings stand for the structures. Where two headings read alike, the source gives them in different places.

From publication PMC6273394, “Discovery of a New Class of Sortase A Transpeptidase Inhibitors to Tackle Gram-Positive Pathogens: 2-(2-Phenylhydrazinylidene)alkanoic Acids and Related Derivatives” (Molecules, 2016) come the findings set out here.

The target in one data set is S. aureus SrtA (Staphylococcus aureus, UniProt Q2FV99). Description: biochemical.
The test system of the next data set is S. aureus ATCC 25923. Description: Interference with biofilm formation assay (safranin method). The data set is classed as cell-based. The note with it: 100 µM compound, 24 h at 37 °C; for inhibition at 100 µM: Staphylococcus aureus, ATCC25923, 24 h, read-out: Percentages of Inhibition of Biofilm Formation S. aureus 25923. How it is done:
(§1) The reference strains S. aureus ATCC 29213, S. aureus ATCC 25923, S. aureus ATCC 6538 and S. epidermidis RP62A were used in the assays.
(§2) The staphylococcal strains were tested for their ability to form biofilms. Briefly, bacteria were grown in TSB containing 2% glucose overnight at 37 °C in a shaking bath and then diluted 1:200 to a suspension with optical density (OD) of about 0.040 at 570 nm. Polystyrene 24-well tissue culture plates were filled with 1 mL of diluted suspension and incubated for 24 h at 37 °C. The wells were then washed three times with 1 mL of sterile phosphate-buffered saline (PBS) and stained with 1 mL of safranin 0.1% v/v for 1 min. The excess stain was removed by placing the plates under running tap water. Plates were dried overnight in an inverted position at 37 °C. Safranin-stained adherent bacteria in each well were re-dissolved to homogeneity in 1 mL of 30% v/v glacial acetic acid, and the OD was read at 492 nm. Each assay was performed in triplicate and repeated at least twice.
(§3) The procedure described above was used to evaluate the activity of phenyl-hydrazinylidene-derivatives in the prevention of biofilm formation. Polystyrene 24-well tissue culture plates were filled with 1 mL of diluted bacterial suspension, obtained and diluted as previously described, and a concentration of 100 µM of each compound was directly added to the bacterial suspension at time zero and incubated at 37 °C for 24 h. The wells were then washed and stained with safranin as per the biofilm forming assay. By comparing the average optical density (O.D.) of the growth control wells with the sample wells, the following formula was used to calculate the percentages of inhibition for each concentration of the sample: (2) Inhibition (%)=OD growth control−OD sample/OD growth control×100
(§4) Each assay was performed in triplicate and assays were repeated at least twice.

Another data set relates to S. aureus ATCC 29213. The data set is described as above. Type of data set: cell-based. Particulars: 100 µM compound, 24 h at 37 °C; for inhibition at 100 µM: Staphylococcus aureus, ATCC29213, 24 h, read-out: Percentages of Inhibition of Biofilm Formation S. aureus 29213. The procedure:
as §1, §2, §3, §4

The next data set has as its system S. aureus ATCC 6538. The data set is described as above. Type of data set: cell-based. The note with it: 100 µM compound, 24 h at 37 °C; for inhibition at 100 µM: Staphylococcus aureus, ATCC6538, 24 h, read-out: Percentages of Inhibition of Biofilm Formation S. aureus 6538. How it is done:
as §1, §2, §3, §4

The test system of the next data set is S. epidermidis RP62A. The description is as above. The data set is classed as cell-based. The note with it: 100 µM compound, 24 h at 37 °C; for inhibition at 100 µM: Staphylococcus epidermidis, RP62A, 24 h, read-out: Percentages of Inhibition of Biofilm Formation S. epidermidis RP62A. The procedure: as §1, §2, §3, §4

S. aureus SrtA, sequence (Q2FV99 60-206): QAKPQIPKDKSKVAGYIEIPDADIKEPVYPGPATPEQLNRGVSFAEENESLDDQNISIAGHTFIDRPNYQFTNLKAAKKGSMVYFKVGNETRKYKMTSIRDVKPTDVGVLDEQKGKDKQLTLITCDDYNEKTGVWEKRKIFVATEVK

In turn, `CC(=O)/C(=N/Nc1ccc(Cl)c(Cl)c1)C(=O)O` [Compound 5b, (2Z)-3-Oxo-2-(2-(3,4-dichlorophenyl)hydrazinylidene)butanoic acid] yielded an IC50 against S. aureus SrtA of 50 µM. The inhibition at 100 µM stood at 39.2 ± 1.4% with S. aureus ATCC 25923, 71.3 ± 6.4% in the data set with S. aureus ATCC 29213, 22 ± 0.9% in the data set with S. aureus ATCC 6538 and 29.1 ± 1.4% with S. epidermidis RP62A.
For the molecule `CCOC(=O)/C(=N\Nc1ccc([N+](=O)[O-])cc1)C(C)=O` [Compound 1d, Ethyl (2Z)-3-Oxo-2(2-(4-nitrophenyl)hydrazinylidene)butanoate], the melting point was 120 to 122 °C. 100 µM corresponded to half-maximal inhibition against S. aureus SrtA (IC50).
As to `CC(=O)/C(=N/Nc1ccc(C)cc1)C(=O)O` [Compound 5f, (2Z)-3-Oxo-2-(2-(4-methylphenyl)hydrazinylidene)butanoic acid], half-maximal inhibition against S. aureus SrtA (IC50) was put at 100 µM. Besides, the inhibition at 100 µM amounted to 33.8 ± 2.7% in the data set on S. aureus ATCC 25923, 40.8 ± 2.1% in the data set with S. aureus ATCC 29213, 40.3 ± 1.9% in the data set on S. aureus ATCC 6538 and 24.4 ± 0.9% with S. epidermidis RP62A.
With `CC(=O)/C(=N/Nc1ccccc1)C(=O)O` [Compound 5a, (2Z)-3-Oxo-2-(2-phenylhydrazinylidene)butanoic acid], half-maximal inhibition on S. aureus SrtA (IC50) was put at 80 µM. Besides, in the data set with S. aureus ATCC 25923 (100 µM), the “Percentages of Inhibition of Biofilm Formation S. aureus 25923” value stood at 68.3 ± 2.0%. Moreover, the inhibition at 100 µM in the data set on S. aureus ATCC 25923, with S. aureus ATCC 29213, with S. aureus ATCC 6538 and in the data set with S. epidermidis RP62A was around 60% in each case. Besides, the “Percentages of Inhibition of Biofilm Formation S. aureus 29213” value in the data set with S. aureus ATCC 29213 (100 µM) stood at 62.3 ± 1.5%. The “Percentages of Inhibition of Biofilm Formation S. aureus 6538” value with S. aureus ATCC 6538 (100 µM) is 60.1 ± 1.7%. In the data set on S. epidermidis RP62A (100 µM), the “Percentages of Inhibition of Biofilm Formation S. epidermidis RP62A” value is on record as 61.5 ± 1.2%.
`CCOC(=O)/C(=N/Nc1ccc(Cl)c(Cl)c1)C(C)=O` [Compound 1b, Ethyl (2E)-3-Oxo-2-(2-(3,4-dichlorophenyl)hydrazinylidene)butanoate]: the melting point lay in the range of 100 to 102 °C. Moreover, at S. aureus SrtA, the IC50 is above 500 µM.
Molecule `COc1cc(N/N=C(/C(C)=O)C(=O)O)cc(OC)c1OC` [Compound 5e, (2Z)-3-Oxo-2-(2-(3,4,5-trimethoxyphenyl)hydrazinylidene)butanoic acid] gave a melting point of 150 to 152 °C. Moreover, the IC50 on S. aureus SrtA is 92 µM. Moreover, in the data set with S. aureus ATCC 25923, the inhibition at 100 µM stood at 28.8 ± 2.9%. For the same molecule, the inhibition at 100 µM with S. aureus ATCC 29213 stood at 34.8 ± 1.3%. The inhibition at 100 µM with S. aureus ATCC 6538 came out at 48.2 ± 0.9%. The inhibition at 100 µM in the data set with S. epidermidis RP62A worked out at 27.1 ± 1.2%.
Take `CCOC(=O)/C(=N/Nc1cccc(Cl)c1)C(C)=O` [Compound 1c, Ethyl (2E)-3-Oxo-2(2-(3-chlorophenyl)hydrazinylidene)butanoate]: the melting point fell in the range of 70 to 72 °C. The IC50 at S. aureus SrtA is above 500 µM.
For the molecule `CCOC(=O)/C(=N\Nc1ccccc1)C(=O)c1ccccc1` [Compound 1g, Ethyl (2Z)-3-Oxo-3-phenyl-2-(2-phenylhydrazinylidene)propanoate], the IC50 on S. aureus SrtA (read-out: IC50 (activity as sortase A inhibitors), 10 µM S. aureus sortase A, preincubated 1 h at 37 °C, 50 µM dabcyl-QALPETGEE-edans substrate) was above 500 µM.
Consider `CC(=O)/C(=N/Nc1ccc([N+](=O)[O-])cc1)C(=O)O` [Compound 5d, (2Z)-3-Oxo-2-(2-(4-nitrophenyl)hydrazinylidene)butanoic acid], for which, on S. aureus SrtA, the IC50 is 57 µM. For the same molecule, the inhibition at 100 µM turned out to be 45.3 ± 1.7% with S. aureus ATCC 25923, 73.7 ± 0.8% with S. aureus ATCC 29213, 53.6 ± 1.8% in the data set with S. aureus ATCC 6538 and 48.6 ± 1.6% with S. epidermidis RP62A.
Turning to `CC(=O)/C(=N/Nc1cccc(Cl)c1)C(=O)O` [Compound 5c, (2Z)-3-Oxo-2-(2-(3-chlorophenyl)hydrazinylidene)butanoic acid], it took 87 µM to reach half-maximal inhibition on S. aureus SrtA (IC50). Also, the inhibition at 100 µM with S. aureus ATCC 25923 is 41.1 ± 0.7%; in the data set on S. aureus ATCC 29213, 69 ± 4.6%; in the data set on S. aureus ATCC 6538, 30.3 ± 0.4%; in the data set on S. epidermidis RP62A it was 22.9 ± 1.3%.
On to `O=C(O)/C(=N\Nc1ccccc1)C(=O)c1ccccc1` [Compound 5g, (2Z)-3-Oxo-3-phenyl-2-(2-phenylhydrazinylidene)propanoic acid], for which the melting point is 136 to 138 °C. The molecule also gave an IC50 at S. aureus SrtA of 98 µM. The inhibition at 100 µM in the data set with S. aureus ATCC 25923 came out at 36.8 ± 2.1%. Moreover, in the data set with S. aureus ATCC 29213, the inhibition at 100 µM worked out at 36.9 ± 1.2%. Further, in the data set on S. aureus ATCC 6538, the inhibition at 100 µM was determined as 41.9 ± 1.7%. Further, the inhibition at 100 µM in the data set with S. epidermidis RP62A came out at 23.7 ± 0.7%.
For the molecule `CN(C)CCC(=O)c1ccc(Cl)c(Cl)c1` [DPDAP, 1-(3,4-dichlorophenyl)-3-dimethylamino-1-propanone, reference compound], the IC50 on S. aureus SrtA amounted to 10 µM.
On to `CCOC(=O)/C(=N\Nc1ccc(Cl)c(Cl)c1)C(=O)c1ccccc1`, for which the melting point lay in the range of 96 to 98 °C.
In the case of `CC(=O)/C(=N/Nc1ccccc1)C(N)=O` [Compound 7a, (2Z)-3-Oxo-2-(2-phenylhydrazinylidene)butanamide], the melting point fell in the range of 134 to 136 °C. Also, at S. aureus SrtA, the IC50 came to 120 µM. The inhibition at 100 µM in the data set on S. aureus ATCC 25923 was found to be 42.1 ± 1.8%. Besides, the inhibition at 100 µM in the data set on S. aureus ATCC 29213 was 48.2 ± 2.9%. Also, the inhibition at 100 µM in the data set with S. aureus ATCC 6538 was determined as 42.8 ± 1.1%. The inhibition at 100 µM in the data set on S. epidermidis RP62A came to 45.9 ± 2.1%.
Molecule `CCOC(=O)/C(=N/Nc1cc(OC)c(OC)c(OC)c1)C(C)=O` [Compound 1e, Ethyl (2E)-3-Oxo-2-(2-(3,4,5-trimethoxyphenyl)hydrazinylidene)butanoate] had a melting point of 78 to 80 °C. The IC50 on S. aureus SrtA is 110 µM.
`CCOC(=O)/C(=N/Nc1ccccc1)C(C)=O` [Compound 1a, Ethyl (2E)-3-Oxo-2-(2-phenylhydrazinylidene)butanoate] gave a melting point of 78 to 80 °C. Moreover, the IC50 against S. aureus SrtA stood at 192 µM.
In turn, `O=C(O)/C(=N\Nc1ccc(Cl)c(Cl)c1)C(=O)c1ccccc1` [Compound 5h, (2Z)-3-Oxo-2-(2-(3,4-dichlorophenyl)hydrazinylidene)-3-phenylpropanoic acid] returned a melting point of 202 to 204 °C. At S. aureus SrtA, the midpoint of inhibition, the IC50, lay at 100 µM. The inhibition at 100 µM in the data set on S. aureus ATCC 25923 came to 55.9 ± 2.6%. Further, the inhibition at 100 µM in the data set on S. aureus ATCC 29213 amounted to 42.7 ± 3.7%. In the data set with S. aureus ATCC 6538, the inhibition at 100 µM was 70.1 ± 2.1%. Further, the inhibition at 100 µM in the data set on S. epidermidis RP62A was 45.4 ± 1.6%.
At S. aureus SrtA, `CC(=O)/C(C#N)=N/Nc1ccccc1` [Compound 6a, (2E)-3-Oxo-2-(2-phenylhydrazinylidene)butanenitrile] displayed a concentration for half-maximal inhibition (IC50) of 80 µM. In addition, the inhibition at 100 µM in the data set with S. aureus ATCC 25923 worked out at 45.1 ± 2.9%; in the data set on S. aureus ATCC 29213 it was 46.2 ± 2.3%; in the data set with S. aureus ATCC 6538, 51 ± 0.9%; with S. epidermidis RP62A, 34.8 ± 1.8%.
With `C=CS(=O)(=O)c1ccccc1` [PVS, Phenyl vinyl sulfone, reference compound], the IC50 at S. aureus SrtA (10 µM S. aureus sortase A, preincubated 1 h at 37 °C, 50 µM dabcyl-QALPETGEE-edans substrate, read-out: IC50 (activity as sortase A inhibitors)) is 736 µM.
Consider `CCOC(=O)/C(=N/Nc1ccc(C)cc1)C(C)=O` [Compound 1f, Ethyl (2E)-3-Oxo-2-(2-(4-methylphenyl)hydrazinylidene)butanoate], for which the IC50 against S. aureus SrtA is above 500 µM.
On to `COc1ccc2cc3[n+](cc2c1OC)CCc1cc2c(cc1-3)OCO2` [BC, Berberine chloride, reference compound], for which the IC50 at S. aureus SrtA was 120 µM.

For orientation: IC50 means the concentration that inhibits the measured activity by half. Broadly, the inhibition is the percentage by which the read-out fell short of the control. What is called melting point is the temperature of the solid-liquid transition.
